In patent publication US20080096967A1, “Formulations for Injection of Catecholic Butanes, Including Ndga Compounds, Into Animals” (priority 2005, published 2008):

Tests used:
[1] = M4N solubility in water miscible organic solvents up to 48 hours (RP-HPLC); assay type: physicochemical
Experimental: To prepare M4N samples, 200 μL of 100 mg/mL M4N dissolved in acetone were placed in 1.5 mL polypropylene microtubes. The solvent was allowed to evaporate at room temperature for 48 hours until the samples were completely dry.
The water miscible organic solvent formulations were prepared in 15 mL polypropylene centrifuge tubes. 10 mL of each formulation was prepared. Each solvent was added on the basis of weight using its respective density at 25° C. Following brief mixing, each formulation was filtered through a 0.45 μm surfactant free cellulose acetate (“SFCA”) filter into a fresh 15 mL tube. Formulations were kept at room temperature until ready for use.
At each time point, the samples were centrifuged for 2 minutes at 13,000 rpm to pellet any solid M4N. As noted in Table 25, over half of the formulation conditions examined were able to solubilize M4N to a concentration of greater than 10 mg/Ml.

[2] = M4N stability in 11-14 mg/mL PEG300/HP-β-CD solutions at room temperature (RP-HPLC); assay type: physicochemical; details: for Observed M4N: room temperature
Experimental: To support manufacturing specifications, this study examined the 24-hour room temperature stability of combinations of PEG300/HP-β-CD at varying M4N target concentrations. Stock samples of M4N stocks were prepared in 100% PEG 300 at drug concentrations of 33-56 mg/mL at 60° C. as follows.
M4N bulk drug was solubilized to concentrations of 33, 44, 48, 52, 55 and 56 mg/mL (w/w) in PEG 300 using the procedure set forth in Examples 13 and 16, following incubation of at least 2 hours at 60° C. Vigorous vortexing and mixing were necessary for complete solubilization of M4N above 44 mg/mL. The M4N stock solutions were filtered through a 0.45 μm SFCA filter and used within 30 minutes of preparation. Separately, a solution of 40% (w/v) HP-β-CD was prepared in sterile WFI and filtered. Combinations of the 40% HP-β-CD stock and the M4N/PEG 300 stocks were combined in 1.5 mL polypropylene microtubes.
The requisite amount of M4N stock was added to 40% HP-β-CD to yield the final concentrations of drug and excipients listed in Table 28. Samples were gently rotated (˜12 rpm) at room temperature. At 2 and 24 hours of incubation, samples were centrifuged 2 minutes at 13,000 rpm and 50 μL aliquots were removed for RP-HPLC analysis.

COc1ccc(C[C@@H](C)[C@@H](C)Cc2ccc(OC)c(OC)c2)cc1OC [Formulation M4N, meso-1,4-bis(3,4-dimethoxyphenyl)-2,3-dimethylbutane]
M4N solubility ([1]; 48% EtOH, 50% PEG300, 2% Benz, 2 hrs at room temperature): 14.51 mg/mL | M4N solubility ([1]; 48% EtOH, 50% PEG300, 2% Benz, 24 hrs at room temperature): 15.78 mg/mL | M4N solubility ([1]; 48% EtOH, 50% PEG300, 2% Benz, 48 hrs at room temperature): 16.49 mg/mL | M4N solubility ([1]; 48% EtOH, 50% PG, 2% Benz, 2 hrs at room temperature): 4.42 mg/mL | M4N solubility ([1]; 48% EtOH, 50% PG, 2% Benz, 24 hrs at room temperature): 4.79 mg/mL | M4N solubility ([1]; 48% EtOH, 50% PG, 2% Benz, 48 hrs at room temperature): 4.92 mg/mL | M4N solubility ([1]; 48% EtOH, 50% T80, 2% Benz, 2 hrs at room temperature): 16.17 mg/mL | M4N solubility ([1]; 48% EtOH, 50% T80, 2% Benz, 24 hrs at room temperature): 19.55 mg/mL | M4N solubility ([1]; 48% EtOH, 50% T80, 2% Benz, 48 hrs at room temperature): 19.96 mg/mL | M4N solubility ([1]; 50% EtOH, 50% Crem, 2 hrs at room temperature): 13.95 mg/mL | M4N solubility ([1]; 50% EtOH, 50% Crem, 24 hrs at room temperature): 17.58 mg/mL | M4N solubility ([1]; 50% EtOH, 50% Crem, 48 hrs at room temperature): 18.49 mg/mL | M4N solubility ([1]; 50% EtOH, 50% Glycerol, 2 hrs at room temperature): 1.14 mg/mL | M4N solubility ([1]; 50% EtOH, 50% Glycerol, 24 hrs at room temperature): 1.53 mg/mL | M4N solubility ([1]; 50% EtOH, 50% Glycerol, 48 hrs at room temperature): 1.60 mg/mL | M4N solubility ([1]; 50% EtOH, 50% PEG300, 24 hrs at room temperature): 15.07 mg/mL | M4N solubility ([1]; 50% EtOH, 50% PEG300, 48 hrs at room temperature): 16.61 mg/mL | M4N solubility ([1]; 50% EtOH, 50% PG, 2 hrs at room temperature): 3.64 mg/mL | M4N solubility ([1]; 50% EtOH, 50% PG, 24 hrs at room temperature): 4.15 mg/mL | M4N solubility ([1]; 50% EtOH, 50% PG, 48 hrs at room temperature): 4.43 mg/mL | M4N solubility ([1]; 50% EtOH, 50% T80, 2 hrs at room temperature): 15.91 mg/mL | M4N solubility ([1]; 50% EtOH, 50% T80, 24 hrs at room temperature): 19.28 mg/mL | M4N solubility ([1]; 50% PG, 50% Crem, 2 hrs at room temperature): 2.94 mg/mL | M4N solubility ([1]; 50% PG, 50% Crem, 24 hrs at room temperature): 6.33 mg/mL | M4N solubility ([1]; 50% PG, 50% Crem, 48 hrs at room temperature): 7.20 mg/mL | M4N solubility ([1]; 50% PG, 50% Glycerol, 2 hrs at room temperature): 0.13 mg/mL | M4N solubility ([1]; 50% PG, 50% Glycerol, 24 hrs at room temperature): 0.48 mg/mL | M4N solubility ([1]; 50% PG, 50% Glycerol, 48 hrs at room temperature): 0.51 mg/mL | M4N solubility ([1]; 50% PG, 50% PEG300, 2 hrs at room temperature): 2.65 mg/mL | M4N solubility ([1]; 50% PG, 50% PEG300, 24 hrs at room temperature): 4.88 mg/mL | M4N solubility ([1]; 50% PG, 50% PEG300, 48 hrs at room temperature): 5.30 mg/mL | M4N solubility ([1]; 50% PG, 50% T80, 2 hrs at room temperature): 5.07 mg/mL | M4N solubility ([1]; 50% PG, 50% T80, 24 hrs at room temperature): 8.16 mg/mL | M4N solubility ([1]; 50% PG, 50% T80, 48 hrs at room temperature): 8.41 mg/mL | M4N solubility ([1]; 100% Crem, 2 hrs at room temperature): 1.19 mg/mL | M4N solubility ([1]; 100% Crem, 24 hrs at room temperature): 7.51 mg/mL | M4N solubility ([1]; 100% Crem, 48 hrs at room temperature): 12.48 mg/mL | M4N solubility ([1]; 100% EtOH, 2 hrs at room temperature): 7.20 mg/mL | M4N solubility ([1]; 100% EtOH, 24 hrs at room temperature): 7.22 mg/mL | M4N solubility ([1]; 100% EtOH, 48 hrs at room temperature): 7.91 mg/mL | M4N solubility ([1]; 100% Glycerol, 2 hrs at room temperature): XXX (not detectable) | M4N solubility ([1]; 100% Glycerol, 24 hrs at room temperature): 0.08 mg/mL | M4N solubility ([1]; 100% Glycerol, 48 hrs at room temperature): XXX (not detectable) | M4N solubility ([1]; glycerol, 2 and 48 hours): not detectable | Observed M4N ([2]; 11 mg/mL M4N, 20% PEG300, 32% HP-β-CD, t = 2 hours): 11.5 mg/mL | Observed M4N ([2]; 11 mg/mL M4N, 20% PEG300, 32% HP-β-CD, t = 24 hours): 11.4 mg/mL | Observed M4N ([2]; 11 mg/mL M4N, 25% PEG300, 30% HP-β-CD, t = 2 hours): 11.3 mg/mL | Observed M4N ([2]; 11 mg/mL M4N, 25% PEG300, 30% HP-β-CD, t = 24 hours): 11.3 mg/mL | Observed M4N ([2]; 11 mg/mL M4N, 33% PEG300, 27% HP-β-CD, t = 2 hours): 11.4 mg/mL | Observed M4N ([2]; 11 mg/mL M4N, 33% PEG300, 27% HP-β-CD, t = 24 hours): 11.3 mg/mL | Observed M4N ([2]; 12 mg/mL M4N, 25% PEG300, 30% HP-β-CD, t = 2 hours): 11.8 mg/mL | Observed M4N ([2]; 12 mg/mL M4N, 25% PEG300, 30% HP-β-CD, t = 24 hours): 11.6 mg/mL | Observed M4N ([2]; 13 mg/mL M4N, 25% PEG300, 30% HP-β-CD, t = 2 hours): 12.7 mg/mL | Observed M4N ([2]; 13 mg/mL M4N, 25% PEG300, 30% HP-β-CD, t = 24 hours): 12.7 mg/mL | Observed M4N ([2]; 14 mg/mL M4N, 25% PEG300, 30% HP-β-CD, t = 2 hours): 13.5 mg/mL | Observed M4N ([2]; 14 mg/mL M4N, 25% PEG300, 30% HP-β-CD, t = 24 hours): 13.5 mg/mL | stability ([2]; 11-14 mg/mL M4N, 25% PEG 300 and 30% HP-β-CD, 24 hours at room temperature): stable
